Experimental data published in patent publication US20060148714A1, “Therapeutic peptide-based constructs” (priority 1999, published 2006).
Converted amounts (≈) assume the structure as drawn. Where a SMILES comes first, the peptide text is derived from it. Where no end group is shown, it is not given here. [ ]: non-standard residue; d: D form. d1Nal = N[C@H](Cc1cccc2ccccc12)C(=O)O; Aib = CC(C)(N)C(=O)O

Assays:
[1] = test system: human umbilical vein endothelial cells (HUVEC); format: cell-based; conditions: for IC50: 72 h
Procedure: Briefly, human umbilical vein endothelial cells (HUVEC) were cultured in EGM-2 medium (Clonetics Corp., San Diego, Calif.), harvested and plated onto a 96-well culture plate. After 24 hours of quiescence, the cells were co-cultured with various peptide-based constricts in the presence of growth factors for 72 hours to test their activity. Cell proliferation was quantitated by tritiated thymidine incorporation into DNA and was expressed in counts per minute (cpm).
Details of the experimental procedures were as follows: HUVEC cells were cultured in EGM-2 media from Clonetics Corp., a subsidiary of BioWhittaker, Inc., San Diego, Calif. [EGM-2 is Endothelial Cell Basal Medium-2 (EMB-2) supplemented with growth factors (hFGF-B, VEGF, IGF-1, hEGF) ascorbic acid, heparin, GA-1000 and 2% FBS), in T75 flasks until confluent (˜4-7 days). Cells were harvested by trypsinizing the cells using 0.025% trypsin/EDTA for 5 minutes. To stop the reaction, 2-5% FBS was added. The cells were centrifuged and washed 3 times using Hank's Balanced Salt Solution (HBSS) or Dulbecco's Phosphate Buffered Saline D-PBS. The pellet was then resuspended in EBM-2 supplemented with 0.1% FBS and GA-1000 was used. The cells were counted and a cell suspension was prepared at 2×10^5/mL in EBM-2 with 0.1% FBS; cells were dispensed into a 96-well flat bottomed culture plate at 0.1 mL/well (total: ˜20,000 cells/well in 0.1% FBS-EBM-2). Incubation continued at 37° C. in 5% CO2 for 20-24 hours. The next day peptide-based constructs were prepared for testing in a 96 well plate. The supernatant was aspirated from the cell-well, replaced with EBM-2 or the testing reagent at 20 μL/well. Then, 180 μL/well of 1.12% FBS-GFS were added to make a final concentration of 1% FBS-GFS in EBM-2. This aspiration and addition was done well-by-well. ^3H-thymidine (100 μCi/mL) was added at 10 μL/well (1 μCi/well, final). Incubation continued at 37° C., 5% CO2 for 72 hours. To harvest the plate, the supernatant was aspirated off from the cell-well and then 75 μL-100 μL/well of 0.025% trypsin-EDTA was added. After incubation for 8-10 minutes at room temperature in the hood, the cells were checked and 100 μL/well of 2-5% FBS-PBS was added to stop the reaction. The plate was then harvested, dried and counted using an Inotech cell harvester (Inotech Biosystems, INB-384, Sample Processing and Filter Counting System, Lansing, Mich.).

[2] = test system: bFGF-induced angiogenesis; test: In vivo Matrigel angiogenesis assay (hemoglobin content of excised gel); conditions: 10 μg peptide construct per gel; hemoglobin of gel excised ten days after s.c. injection; C57BL/6J mice
Procedure: For these experiments, peptide-based constructs according to the invention were assayed for their ability to inhibit heparin-induced angiogenesis in vivo in mice. Basement membrane matrix (Matrigel®, Becton Dickinson Labware, Mountain View, Calif.) was thawed and maintained at 4° C. and angiogenic factors were added to the gel in the liquid state generally as described in Passaniti et al., 1992, Lab. Invest. 67: 519-528. Heparin sodium (Sigma, St. Louis, Mo.) was dissolved in sterile PBS to various concentrations ranging from 1,250-10,000 U/mL, and used in these experiments at 8,000 U/mL. Human recombinant basic fibroblast growth factor (bFGF; Sigma) was reconstituted into 1. % BSA in PBS to 25 μg/mL. A volume of 2.5 μL dissolved heparin solution and 4.0 μL recombinant bFGF were added to 0.5 mL Matrigel® mixture per mouse injection. Peptide-based constructs were added to this Matrigel® mixture at varying concentrations ranging from 0.5 to 50 μg/mL (final concentration) in 10 μL/0.5 mL Matrigel® aliquot per experimental animal. Ten μL sterile PBS was substituted for peptide-based constructs in Matrigel® aliquots injected into control animals.
Female C57BL/6J mice (Jackson Laboratory, Bar Barbor, Me.) at 6-8 weeks of age (maintained under NIH guidelines) were injected subcutaneously down the dorsal midline with 0.5 mL aliquots of Matrigel® prepared as described above. Ten days after injection, the Matrigel® gels were excised and placed in Drabkin's reagent (Sigma). Total protein and hemoglobin content can be determined for the gels stored in Drabkin's reagent after mechanical homogenization of the gels. Hemoglobin concentration was measured using Sigma Procedure #525 and reagents supplied by Sigma (St. Louis, Mo.) to be used with this procedure. If desired, total protein levels are determined using a microplate assay that is commercially embodied in a kit (DC Protein Assay, Bio-Rad, Richmond, Calif.).
Gels to be used for histological staining are formalin-fixed immediately after excision from the animals rather than being placed in Drabkin's reagent. Formalin-fixed gels are embedded in Tissue-Tek O.C.T. compound (Miles, Inc., Elkhart, Ind.) for frozen sectioning. Slides of frozen sections are stained with hematoxylin and eosin (as described by Humason, 1979, Animal Tissue Techniques, 4th Ed. W.H. Feeman & Co., San Francisco, Calif., Ch. 9, pp. 111-131). The effect of peptides are detected by microscopic examination of frozen stained sections for inhibition of angiogenesis relative to Matrigel® gel slices prepared without added peptides. The extent of angiogenesis inhibition is quantitated using the normalized amounts of hemoglobin found in BPI peptide-containing gel slices.
Data are presented as the means of triplicate determinations of hemoglobin concentrations from the excised gel (ISEM) with ten mice per group.

[3] = test system: Factor Xa neutralization by ATIII/heparin complexes; test: Chromostrate heparin anti-Factor Xa assay (heparin neutralization); format: biochemical; conditions: absorbance at 405 nm
Procedure: A Chromostrate™ assay was used to determine the effect of peptide-based constructs, including derivatized constructs, and the effect protamine sulfate (as a positive control) on Factor Xa neutralization by ATIII/heparin complexes. The assay was conducted using a Chromostrate™ heparin anti-Factor Xa assay kit (Organon Teknika Corp., Durham, N.C.). Heparin concentration was varied so that a heparin standard curve was generated. The assay measured the potentiating effect of heparin on anti-Xa activity in vitro. Solution containing heparin is incubated in the presence of ATIII with an excess of Factor Xa, forming an ATIII-Heparin-Xa complex. The remaining Xa catalyzes the release of p-nitroaniline (pNA) from the chromogenic substrate. The release of p-nitroaniline is measured at 405 nm. The absorbance obtained in inversely porportional to the concentration of heparin in the sample.
Reagents for the assay are prepared as follows. Heparin, peptide-based constructs and protamine sulfate stocks are made in saline. Stock solutions are approximately 1 mg/mL=1 μg/μL. Factor Xa reagent and substrate reagent are reconstituted with 2.0 mL purified water. Antithrombin III (ATIII) reagent is reconstituted with 1.0 mL purified water. The assay is performed in 96 well microtiter plates. Assay components are added to the microtiter wells as follows: 12.5 μl of heparin (from 0 to 10 U/mL), 25 μl of construct or protamine sulfate, 12.5 μL of ATIII (0.5 PEU/mL), 25 μL of bovine Factor Xa (14 nKat/mL), 25 μL substrate (3 μmoles/mL). The reaction is allowed to proceed for 20 minutes and then 25 μL of 0.1 M acetic acid is added. The color reaction is quantitated on a microplate reader at 405 nm. Constructs that neutralize heparin show an increase in the absorbance at 405 nm. Protamine is used as a positive control and its activity is designated as 100%. The percent (%) heparin neutralization for each peptide construct is calculated relative to the neutralization by protamine (100%), and shown in Table IV.

[4] = test system: LPS; test: RAW cell assay of LPS neutralization; format: cell-based
[5] = test system: E. coli (J5 and 0111 B4), Staphylococcus aureus and Candida albicans; test: Broth and/or radial diffusion antimicrobial assays; format: cell-based
From the text: Assays useful for testing a variety of biological activities of BPI protein products, including BPI-derived peptides, are described in co-owned U.S. Pat. Nos. 5,733,872; 5,763,567; 5,652,332; and 5,856,438 and corresponding PCT Publication Nos. WO 94/20532 (PCT/US94/02465) and WO 95/19372 (PCT/US94/10427) and U.S. Pat. No. 5,858,974 and corresponding PCT Publications Nos. WO 96/08509 (PCT/US95/09262) and WO 97/04008 (PCT/US96/03845), incorporated herein by reference. These activities include antimicrobial (including antibacterial and antifungal), LPS binding, LPS neutralization and additional assays of heparin binding as well as heparin neutralization.

| Molecule | IC50 [1] | IC50 values, additional assays ([1]; HUVEC proliferation, purified constructs, said to be comparable to Table II (μg/mL)) | % Inhibition [2] | Assay A: percent heparin neutralization relative to protamine (100%) [3] | Assay B: percent heparin neutralization relative to protamine (100%) [3] | LPS neutralization activity [4] | antimicrobial activity [5] |
| --- | --- | --- | --- | --- | --- | --- | --- |
| CC(C)C[C@@H](NC(=O)[C@H](N)CCCCN)C(=O)N[C@H](Cc1ccccc1)C(=O)N[C@H](CCCNC(=N)N)C(=O)N[C@H](Cc1cccc2ccccc12)C(=O)N[C@H](CCC(N)=O)C(=O)N[C@H](C)C(=O)N[C@H](CCCCN)C(N)=O [XMP.630, k-l-f-r-(naph-a)-q-a-k] (H-[dK][dL][dF][dR][d1Nal][dQ][dA][dK]-NH2; N-terminus and C-terminus assumed) | >25 µg/mL | > 50 | 49.6% | 2.3% | 0.5% | – | – |
| CC[C@@H](C)[C@@H](NC(=O)[C@@H](CO)NC(=O)CNC(=O)[C@@H](CCCCN)NC(=O)[C@@H](Cc1cccc2ccccc12)NC(=O)[C@@H](CCCCN)NC(=O)[C@@H](C)NC(=O)[C@@H](CCC(N)=O)NC(=O)[C@@H](Cc1cccc2ccccc12)NC(=O)[C@@H](CCCNC(=N)N)NC(=O)[C@@H](Cc1ccccc1)NC(=O)[C@@H](CC(C)C)NC(=O)[C@H](N)CCCCN)C(N)=O [XMP.625, k-l-f-r-(naph-a)-q-a-k-(naph-a)-k-g-s-i] (H-[dK][dL][dF][dR][d1Nal][dQ][dA][dK][d1Nal][dK]G[dS][dI]-NH2) | – | – | – | 79% | 125% | showed activity | – |
| CC(C)C[C@@H](NC(=O)[C@H](N)CCCCN)C(=O)N[C@H](Cc1ccccc1)C(=O)N[C@H](CCCNC(=N)N)C(=O)N[C@H](Cc1cccc2ccccc12)C(=O)N[C@H](CCC(N)=O)C(=O)N[C@H](C)C(=O)N[C@H](CCCCN)C(=O)N[C@H](Cc1cccc2ccccc12)C(=O)N[C@H](CCCCN)C(=O)NCC(=O)N[C@H](CO)C(N)=O [XMP.626, k-l-f-r-(naph-a)-q-a-k-(naph-a)-k-g-s] (H-[dK][dL][dF][dR][d1Nal][dQ][dA][dK][d1Nal][dK]G[dS]-NH2) | – | – | – | 99% | 80% | showed activity | – |
| CC[C@@H](C)[C@@H](NC(=O)[C@@H](CCCCN)NC(=O)[C@H](NC(=O)CNC(=O)[C@@H](CCCCN)NC(=O)[C@@H](Cc1cccc2ccccc12)NC(=O)[C@@H](CCCCN)NC(=O)[C@@H](C)NC(=O)[C@@H](CCC(N)=O)NC(=O)[C@@H](Cc1cccc2ccccc12)NC(=O)[C@@H](CCCNC(=N)N)NC(=O)[C@@H](Cc1ccccc1)NC(=O)[C@@H](CC(C)C)NC(=O)[C@H](N)CCCCN)[C@H](C)CC)C(N)=O [XMP.656, k-l-f-r-(naph-a)-q-a-k-(naph-a)-k-g-i-k-i] (H-[dK][dL][dF][dR][d1Nal][dQ][dA][dK][d1Nal][dK]G[dI][dK][dI]-NH2; N-terminus assumed) | 2.6 ± 0.8 µg/mL (≈ 1.43 µM) | – | – | 74% | 65% | – | highest antimicrobial activities |
| CC(C)C[C@@H](NC(=O)[C@H](N)CCCCN)C(=O)N[C@H](Cc1ccccc1)C(=O)N[C@H](CCCNC(=N)N)C(=O)N[C@H](Cc1cccc2ccccc12)C(=O)N[C@H](CCC(N)=O)C(=O)N[C@H](C)C(=O)N[C@H](CCCCN)C(=O)N[C@H](Cc1cccc2ccccc12)C(=O)N[C@H](CCCCN)C(N)=O [XMP.628, k-l-f-r-(naph-a)-q-a-k-(naph-a)-k] (H-[dK][dL][dF][dR][d1Nal][dQ][dA][dK][d1Nal][dK]-NH2) | – | – | – | 107% | 68% | showed activity | highest antimicrobial activities |
| k-(aminoisobutyric acid)-f-r-(naph-a)-q-a-k-(naph-a) ([dK][Aib][dF][dR]A[dQ][dA][dK]A; not fully specified (residues 5, 9)) [XMP.778] | – | – | – | 54% | 49% | – | highest antimicrobial activities |
